# Reference: patent US5132111A (priority 1990, dated 1992)
# Non-standard residues stand in square brackets, D forms with d. Residues, ends and D or L forms follow the SMILES beside them. hArg = N=C(N)NCCCC[C@H](N)C(=O)O; Nle = CCCC[C@H](N)C(=O)O
# Test system: cultured rat pituitary cells
# Format: cell-based
Compound,secretion of ACTH,secretion of β-endorphin (β-END-LI)
"CCCC[C@H](NC(=O)[C@H](CCC(=O)O)NC(=O)[C@H](CC(C)C)NC(=O)[C@H](CCCC)NC(=O)[C@H](CCC(=O)O)NC(=O)[C@H](CCCNC(=N)N)NC(=O)[C@H](CC(C)C)NC(=O)[C@H](CC(C)C)NC(=O)[C@H](Cc1c[nH]cn1)NC(=O)[C@H](Cc1ccccc1)NC(=O)[C@@H](NC(=O)[C@H](CC(C)C)NC(=O)[C@H](CC(=O)O)NC(=O)[C@H](CC(C)C)NC(=O)[C@H](CO)NC(=O)[C@@H](NC(=O)[C@@H]1CCCN1)[C@@H](C)CC)[C@@H](C)O)C(=O)N[C@@H](C)C(=O)N[C@@H](CCCNC(=N)N)C(=O)N[C@@H](C)C(=O)N[C@@H](CCC(=O)O)C(=O)N[C@@H](CCC(N)=O)C(=O)N[C@@H](CCC(=O)O)C(=O)N[C@@H](C)C(=O)N[C@@H](CCC(=O)O)C(=O)N[C@@H](CCC(N)=O)C(=O)N[C@@H](C)C(=O)N[C@@H](C)C(=O)N[C@@H](CC(C)C)C(=O)N[C@@H](CC(N)=O)C(=O)N[C@@H](CCCNC(=N)N)C(=O)N[C@@H](CC(C)C)C(=O)N[C@@H](CC(C)C)C(=O)N[C@@H](CC(C)C)C(=O)N[C@@H](CCC(=O)O)C(=O)N[C@@H](CCC(=O)O)C(=O)N[C@@H](C)C(N)=O [[Nle^18,21, ]-AAHC(5-41)] (H-PISLDLTFHLLRE[Nle]LE[Nle]ARAEQEAEQAALNRLLLEEA-NH2)",stimulates,stimulates
"H-GEEPPISLDLTFHLLREVLEMARAEQLAQQAHLNRRLMEEI-NH2 [[Gly^1, Leu^33, Glu^40]-rCRF]",stimulates,stimulates
H-PPISLDLTFHLLREVLEMARAEQLAEQAHSNRRYMEEI-NH2,stimulates,stimulates
H-PPISLDLTFHLLREVLEMARAEQLAQQAHLNRRLMEEI-NH2,stimulates,stimulates
"H-SEEPPISLDLTFHLLREVLEMTRAEQLAEQAHSNRRLMEEI-NH2 [[Thr^22, Glu^29,40, Arg^36]-rCRF]",stimulates,stimulates
"H-SEEPPISLDLTFHLLREVLE[Nle]ARAEQLAEQAHSNRRL[Nle]EII-NH2 [[Nle^21,38, Glu^29, Arg^36]-rCRF]",stimulates,stimulates
H-SEEPPISLDLTFHLLREVLE[Nle]ARAEQLAQQAYLNRRL[Nle]EEI-NH2,stimulates,stimulates
H-SEEPPISLDLTFHLLREVLE[Nle]A[hArg]AEQLAQQAHLNRRLMEE[Nle]-NH2,stimulates,stimulates
H-SEEPPISLDLTLELLREMLEME[hArg]AEREAEQAALNRLLLEEA-NH2,stimulates,stimulates
H-SEEPPISLELTFHLLREVLE[Nle]ARAEQLAEQAHLNRRL[Nle]EII-NH2,stimulates,stimulates
H-SEEPPIS[Nle]DLSFHLLREVLEMARAEQLAQQAHLNRRLMEEI-NH2,stimulates,stimulates
H-SQEPPISLDLTFALLREMLEMARAEQEAEQAALNRLLLEEA-NH2 [[Ala13]-AAHC],stimulates,stimulates
H-SQEPPISLDLTFHLLREMLEMARAEQEAEQAALNRLLLEEA-NH2 [AAHC],biologically potent to stimulate the secretion,biologically potent to stimulate the secretion
"H-SQEPPISLDLTFHLLREVLEMARAEQLAEQAHSNRRLLEII-NH2 [[Gln^2, Glu^29, Leu^38]-rCRF]",stimulates,stimulates
"H-SQEPPISLDLTFHLLREVLEMTRADQLAQQAHSNRRLLDIA-NH2 [[Arg^23,36]-oCRF]",stimulates,stimulates
"H-SQEPPISLDLTFHLLREVLE[Nle]TRADQLAQQAHSNRRLLDIA-NH2 [[Nle^21, Arg^23,36]-oCRF]",stimulates,stimulates
"H-SQEPPISLDLTFHLLRE[Nle]LE[Nle]ARAEQEAEQAALNRLLLEEA-NH2 [[Nle^18, 21]-AAHC]",stimulates,stimulates
"H-SQEPPISLDLTFHLLRE[Nle]LE[Nle]TRADQLRQQAHSNRRLLDIA-NH2 [[Nle^18,21,Arg^23,28,36]-oCRF]",stimulates,stimulates
"H-SQEPPISLELTFHLLRE[Nle]LE[Nle]ARAEQEAEQAALNRLLLEEA-NH2 [[Glu^9, Nle^18, 21]-AAHC]",stimulates,stimulates
"H-SQE[dP]PISLDLTFHLLRE[Nle]LE[Nle]ARAEQEAEQAALNRLLLEEA-NH2 [[D-Pro^4, Nle^18,21]-AAHC]",stimulates,stimulates
"H-SQ[dY][dP]PISLDLTFHLLRE[Nle]LE[Nle]ARAEQEAEQAALNRLLLEEA-NH2 [[D-Tyr^3, D-Pro^4, Nle^18, 21]-AAHC]",stimulates,stimulates
"H-Ser-Gln-Glu-Pro-Pro-Ile-Ser-Leu-Asp-CML-Thr-Leu-Glu-Leu -Leu-Arg-Glu-Met-Leu-Glu-Met-Ala-Arg-Ala-Glu-Gln-Glu-Ala -Glu-Gln-Ala-Ala-Leu-Asn-Arg-Leu-Tyr-Leu-Glu-Glu-Ala-NH2 [[Leu^12, Glu^13, Tyr^37]-AAHC]",stimulates,stimulates
"H-VSEPPISLDLTFHLLREVLEMARAEQLAQQAHSNRRLMEEI-NH2 [[Val^1, Ser^2, Arg^36, Glu^40]-rCRF]",stimulates,stimulates

# Test system: secretion of ACTH and β-END-LI
Compound,secretion of ACTH (inhibition),secretion of β-END-LI (inhibition)
CCCC[C@H](N)C(=O)N[C@@H](CC(=O)O)C(=O)N[C@@H](CC(C)C)C(=O)N[C@@H](CO)C(=O)N[C@@H](Cc1ccccc1)C(=O)N[C@@H](Cc1c[nH]cn1)C(=O)N[C@@H](CC(C)C)C(=O)N[C@@H](CC(C)C)C(=O)N[C@@H](CCCNC(=N)N)C(=O)N[C@@H](CCC(=O)O)C(=O)N[C@H](C(=O)N[C@@H](CC(C)C)C(=O)N[C@@H](CCC(=O)O)C(=O)N[C@@H](CCSC)C(=O)N[C@@H](C)C(=O)N[C@@H](CCCNC(=N)N)C(=O)N[C@@H](C)C(=O)N[C@@H](CCC(=O)O)C(=O)N[C@@H](CCC(N)=O)C(=O)N[C@@H](CC(C)C)C(=O)N[C@@H](C)C(=O)N[C@@H](CCC(N)=O)C(=O)N[C@@H](CCC(N)=O)C(=O)N[C@@H](C)C(=O)N[C@@H](Cc1c[nH]cn1)C(=O)N[C@@H](CC(C)C)C(=O)N[C@@H](CC(N)=O)C(=O)N[C@@H](CCCNC(=N)N)C(=O)N[C@@H](CCCNC(=N)N)C(=O)N[C@@H](CC(C)C)C(=O)N[C@@H](CCSC)C(=O)N[C@@H](CCC(=O)O)C(=O)N[C@H](C(=O)N[C@H](C(N)=O)[C@@H](C)CC)[C@@H](C)CC)C(C)C (H-[Nle]DLSFHLLREVLEMARAEQLAQQAHLNRRLMEII-NH2),inhibits,inhibits
"CCCC[C@H](NC(=O)[C@H](CCC(=O)O)NC(=O)[C@H](CC(C)C)NC(=O)[C@H](CCCC)NC(=O)[C@H](CCC(=O)O)NC(=O)[C@H](CCCNC(=N)N)NC(=O)[C@H](CC(C)C)NC(=O)[C@H](CC(C)C)NC(=O)[C@H](CCC(=O)O)NC(=O)[C@H](Cc1ccccc1)NC(=O)[C@@H](NC(=O)[C@H](CC(C)C)NC(=O)[C@@H](N)CC(=O)O)[C@@H](C)O)C(=O)N[C@@H](C)C(=O)N[C@@H](CCCNC(=N)N)C(=O)N[C@@H](C)C(=O)N[C@@H](CCC(=O)O)C(=O)N[C@@H](CCC(N)=O)C(=O)N[C@@H](CCC(=O)O)C(=O)N[C@@H](C)C(=O)N[C@@H](CCC(=O)O)C(=O)N[C@@H](CCC(N)=O)C(=O)N[C@@H](C)C(=O)N[C@@H](C)C(=O)N[C@@H](CC(C)C)C(=O)N[C@@H](CC(N)=O)C(=O)N[C@@H](CCCNC(=N)N)C(=O)N[C@@H](CC(C)C)C(=O)N[C@@H](CC(C)C)C(=O)N[C@@H](CC(C)C)C(=O)N[C@@H](CCC(=O)O)C(=O)N[C@@H](CCC(=O)O)C(=O)N[C@@H](C)C(N)=O [[Glu^13,Nle^18,21]-AAHC(9-41)] (H-DLTFELLRE[Nle]LE[Nle]ARAEQEAEQAALNRLLLEEA-NH2)",inhibits,inhibits
"CCCC[C@H](NC(=O)[C@H](CCC(=O)O)NC(=O)[C@H](CC(C)C)NC(=O)[C@H](CCCC)NC(=O)[C@H](CCC(=O)O)NC(=O)[C@H](CCCNC(=N)N)NC(=O)[C@H](CC(C)C)NC(=O)[C@H](CC(C)C)NC(=O)[C@H](Cc1c[nH]cn1)NC(=O)[C@H](Cc1ccccc1)NC(=O)[C@@H](NC(=O)[C@H](CC(C)C)NC(=O)[C@H](CC(=O)O)NC(=O)[C@@H](N)CC(C)C)[C@@H](C)O)C(=O)N[C@@H](C)C(=O)N[C@@H](CCCNC(=N)N)C(=O)N[C@@H](C)C(=O)N[C@@H](CCC(=O)O)C(=O)N[C@@H](CCC(N)=O)C(=O)N[C@@H](CCC(=O)O)C(=O)N[C@@H](C)C(=O)N[C@@H](CCC(=O)O)C(=O)N[C@@H](CCC(N)=O)C(=O)N[C@@H](C)C(=O)N[C@@H](C)C(=O)N[C@@H](CC(C)C)C(=O)N[C@@H](CC(N)=O)C(=O)N[C@@H](CCCNC(=N)N)C(=O)N[C@@H](CC(C)C)C(=O)N[C@@H](CC(C)C)C(=O)N[C@@H](CC(C)C)C(=O)N[C@@H](CCC(=O)O)C(=O)N[C@@H](CCC(=O)O)C(=O)N[C@@H](C)C(N)=O [[Nle^18,21]-AAHC(8-41)] (H-LDLTFHLLRE[Nle]LE[Nle]ARAEQEAEQAALNRLLLEEA-NH2)",inhibits,inhibits
